Bounds are passed on as bounds.

Assay in all cases: radiometric protein kinase assay
One assay deals with CK1δ/ε. It counts as biochemical, porcine. The following applies: for IC50: 15 μmol/L ATP, read-out: IC50 CK1.
The target of another assay is T1, CDK5/p25 (Homo sapiens, UniProt Q00535).
T1 construct: made in house
It counts as biochemical. Particulars: for IC50: 15 μmol/L ATP.

The next assay deals with T2, DYRK2 (Homo sapiens, UniProt Q92630).
T2 sequence (Q92630 1-601): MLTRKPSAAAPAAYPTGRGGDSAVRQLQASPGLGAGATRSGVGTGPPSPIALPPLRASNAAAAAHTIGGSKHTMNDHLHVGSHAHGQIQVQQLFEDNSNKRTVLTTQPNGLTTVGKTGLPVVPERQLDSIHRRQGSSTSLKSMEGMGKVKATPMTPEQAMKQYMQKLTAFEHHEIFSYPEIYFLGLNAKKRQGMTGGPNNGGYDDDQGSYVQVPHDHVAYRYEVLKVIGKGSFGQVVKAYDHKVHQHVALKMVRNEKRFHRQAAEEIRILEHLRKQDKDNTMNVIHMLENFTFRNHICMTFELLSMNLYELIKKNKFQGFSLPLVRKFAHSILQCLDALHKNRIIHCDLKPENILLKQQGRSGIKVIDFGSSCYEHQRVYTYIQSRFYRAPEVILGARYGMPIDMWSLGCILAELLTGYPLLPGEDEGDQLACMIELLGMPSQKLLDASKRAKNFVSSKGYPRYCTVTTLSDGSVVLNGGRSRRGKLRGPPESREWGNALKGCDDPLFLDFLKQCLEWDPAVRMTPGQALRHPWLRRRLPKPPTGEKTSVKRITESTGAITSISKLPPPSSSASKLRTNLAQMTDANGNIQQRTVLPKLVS
In kind it is biochemical. Particulars: for IC50: 15 μmol/L ATP, read-out: IC50 DYRK 2.

Another assay concerns the target DYRK1B (Homo sapiens, UniProt Q9Y463). It counts as biochemical. The following applies: for IC50: 15 μmol/L ATP, read-out: IC50 DYRK 1B.
A further assay has as its target CLK1 (Mus musculus, UniProt P22518).
The target in a further assay is CLK3 (Mus musculus, UniProt O35492).
The next assay has as its target CDK9/cyclin T (Homo sapiens, UniProt P50750).
The next assay has as its target CLK4 (Mus musculus, UniProt O35493).
Another assay concerns the target CLK2 (Mus musculus, UniProt O35491).
The target of the next assay is T3, CDK2/cyclin A (Homo sapiens, UniProt P24941).
T3 construct: made in house
It counts as biochemical. Particulars: for IC50: 15 μmol/L ATP, read-out: IC50 CDK2/cyclinA.

The next assay deals with GSK-3. It counts as biochemical, porcine. The following applies: for IC50: 15 μmol/L ATP, read-out: IC50 GSK3.
In the next assay the target is DYRK1A (Homo sapiens, UniProt Q13627). In kind it is biochemical. The following applies: for IC50: 15 μmol/L ATP, read-out: IC50 DYRK 1A.
The next assay deals with CDK1/cyclin B. It counts as biochemical, starfish. The following applies: for IC50: 15 μmol/L ATP.
The next assay deals with T4, DYRK3 (Homo sapiens, UniProt O43781).
T4 sequence (O43781 1-588): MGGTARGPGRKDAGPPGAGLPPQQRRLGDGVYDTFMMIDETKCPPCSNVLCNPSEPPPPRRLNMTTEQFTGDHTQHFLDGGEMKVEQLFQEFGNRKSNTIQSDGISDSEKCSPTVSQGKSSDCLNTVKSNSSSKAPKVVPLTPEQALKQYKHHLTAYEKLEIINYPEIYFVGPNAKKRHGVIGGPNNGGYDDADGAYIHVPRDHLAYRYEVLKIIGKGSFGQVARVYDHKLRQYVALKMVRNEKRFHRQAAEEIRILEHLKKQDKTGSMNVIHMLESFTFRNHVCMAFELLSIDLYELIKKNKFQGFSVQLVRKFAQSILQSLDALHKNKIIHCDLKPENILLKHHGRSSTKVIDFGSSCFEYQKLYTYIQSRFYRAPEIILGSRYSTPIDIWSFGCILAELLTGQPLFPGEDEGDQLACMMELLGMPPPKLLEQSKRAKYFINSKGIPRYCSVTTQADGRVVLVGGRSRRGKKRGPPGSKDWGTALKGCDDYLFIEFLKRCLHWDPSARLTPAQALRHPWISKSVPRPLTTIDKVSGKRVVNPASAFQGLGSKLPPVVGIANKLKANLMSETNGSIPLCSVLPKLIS
In kind it is biochemical. Particulars: for IC50: 15 μmol/L ATP, read-out: IC50 DYRK 3.

CLK4, sequence (O35493 whole entry): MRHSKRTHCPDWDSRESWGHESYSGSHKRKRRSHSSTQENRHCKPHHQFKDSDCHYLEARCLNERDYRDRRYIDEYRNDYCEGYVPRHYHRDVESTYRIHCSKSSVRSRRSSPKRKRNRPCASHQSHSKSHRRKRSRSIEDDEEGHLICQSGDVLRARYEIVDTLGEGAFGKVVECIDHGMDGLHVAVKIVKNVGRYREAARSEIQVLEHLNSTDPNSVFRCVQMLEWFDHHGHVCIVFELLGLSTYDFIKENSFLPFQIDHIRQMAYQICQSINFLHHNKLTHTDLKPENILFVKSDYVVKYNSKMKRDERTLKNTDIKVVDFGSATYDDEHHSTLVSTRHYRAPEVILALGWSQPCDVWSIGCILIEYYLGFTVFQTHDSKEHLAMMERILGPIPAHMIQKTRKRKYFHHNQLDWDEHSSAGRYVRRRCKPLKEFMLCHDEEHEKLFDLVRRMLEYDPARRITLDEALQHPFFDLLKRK
CLK3, sequence (O35492 whole entry): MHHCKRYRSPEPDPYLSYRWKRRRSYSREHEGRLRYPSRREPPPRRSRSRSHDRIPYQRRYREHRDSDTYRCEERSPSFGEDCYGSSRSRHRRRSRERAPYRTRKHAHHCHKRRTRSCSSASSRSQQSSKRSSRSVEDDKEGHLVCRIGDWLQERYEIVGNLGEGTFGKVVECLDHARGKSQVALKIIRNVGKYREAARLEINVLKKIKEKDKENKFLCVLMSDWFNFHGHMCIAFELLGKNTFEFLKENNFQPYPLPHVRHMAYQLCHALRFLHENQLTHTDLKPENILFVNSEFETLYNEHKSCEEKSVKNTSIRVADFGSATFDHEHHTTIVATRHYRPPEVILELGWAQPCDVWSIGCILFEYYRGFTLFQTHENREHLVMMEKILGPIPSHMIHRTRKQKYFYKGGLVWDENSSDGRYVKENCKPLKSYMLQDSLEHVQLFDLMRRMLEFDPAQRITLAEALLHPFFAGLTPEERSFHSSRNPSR
CDK9/cyclin T, sequence (P50750 whole entry): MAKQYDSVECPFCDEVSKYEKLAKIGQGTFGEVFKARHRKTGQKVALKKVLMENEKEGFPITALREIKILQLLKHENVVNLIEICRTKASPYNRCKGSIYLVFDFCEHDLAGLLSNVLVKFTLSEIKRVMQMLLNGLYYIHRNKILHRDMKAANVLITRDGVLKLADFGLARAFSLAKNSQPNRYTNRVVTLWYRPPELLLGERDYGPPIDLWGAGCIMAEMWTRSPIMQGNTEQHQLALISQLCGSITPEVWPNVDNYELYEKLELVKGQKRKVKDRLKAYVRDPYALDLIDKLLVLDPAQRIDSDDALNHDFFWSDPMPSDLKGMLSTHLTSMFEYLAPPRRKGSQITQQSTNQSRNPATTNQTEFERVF
CDK9/cyclin T, sequence (O60563 whole entry partner): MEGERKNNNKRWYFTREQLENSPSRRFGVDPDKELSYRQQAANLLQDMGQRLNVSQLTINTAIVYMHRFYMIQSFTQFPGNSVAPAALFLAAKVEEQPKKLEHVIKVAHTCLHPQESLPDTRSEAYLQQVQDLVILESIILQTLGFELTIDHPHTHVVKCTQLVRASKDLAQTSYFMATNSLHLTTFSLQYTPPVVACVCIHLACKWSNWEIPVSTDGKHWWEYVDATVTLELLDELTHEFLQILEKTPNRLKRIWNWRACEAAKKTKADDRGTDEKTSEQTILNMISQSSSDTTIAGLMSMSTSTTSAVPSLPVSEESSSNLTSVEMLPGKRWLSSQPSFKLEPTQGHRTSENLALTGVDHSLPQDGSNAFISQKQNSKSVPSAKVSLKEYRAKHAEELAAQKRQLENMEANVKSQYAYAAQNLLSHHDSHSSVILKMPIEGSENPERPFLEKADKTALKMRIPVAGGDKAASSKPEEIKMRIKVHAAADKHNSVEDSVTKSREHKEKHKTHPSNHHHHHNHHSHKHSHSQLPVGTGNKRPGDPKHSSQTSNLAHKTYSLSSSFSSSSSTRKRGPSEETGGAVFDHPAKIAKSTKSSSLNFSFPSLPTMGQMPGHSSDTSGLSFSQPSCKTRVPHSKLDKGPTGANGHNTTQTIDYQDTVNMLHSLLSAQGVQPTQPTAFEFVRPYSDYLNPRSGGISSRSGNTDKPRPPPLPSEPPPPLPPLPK
CLK1, sequence (P22518 whole entry): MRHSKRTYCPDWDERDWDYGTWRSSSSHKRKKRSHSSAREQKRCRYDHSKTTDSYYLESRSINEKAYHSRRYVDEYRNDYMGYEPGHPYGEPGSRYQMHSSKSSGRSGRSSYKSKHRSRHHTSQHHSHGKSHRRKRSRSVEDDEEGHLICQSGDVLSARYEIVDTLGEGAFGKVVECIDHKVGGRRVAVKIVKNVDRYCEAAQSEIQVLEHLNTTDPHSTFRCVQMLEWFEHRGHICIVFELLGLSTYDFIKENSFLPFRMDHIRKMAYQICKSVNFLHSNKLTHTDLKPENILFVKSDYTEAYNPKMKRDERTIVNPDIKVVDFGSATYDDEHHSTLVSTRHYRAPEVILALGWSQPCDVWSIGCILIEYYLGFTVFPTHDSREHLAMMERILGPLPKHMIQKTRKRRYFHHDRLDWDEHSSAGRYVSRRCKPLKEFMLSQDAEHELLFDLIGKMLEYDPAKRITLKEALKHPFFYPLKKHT
DYRK1B, sequence (Q9Y463 whole entry): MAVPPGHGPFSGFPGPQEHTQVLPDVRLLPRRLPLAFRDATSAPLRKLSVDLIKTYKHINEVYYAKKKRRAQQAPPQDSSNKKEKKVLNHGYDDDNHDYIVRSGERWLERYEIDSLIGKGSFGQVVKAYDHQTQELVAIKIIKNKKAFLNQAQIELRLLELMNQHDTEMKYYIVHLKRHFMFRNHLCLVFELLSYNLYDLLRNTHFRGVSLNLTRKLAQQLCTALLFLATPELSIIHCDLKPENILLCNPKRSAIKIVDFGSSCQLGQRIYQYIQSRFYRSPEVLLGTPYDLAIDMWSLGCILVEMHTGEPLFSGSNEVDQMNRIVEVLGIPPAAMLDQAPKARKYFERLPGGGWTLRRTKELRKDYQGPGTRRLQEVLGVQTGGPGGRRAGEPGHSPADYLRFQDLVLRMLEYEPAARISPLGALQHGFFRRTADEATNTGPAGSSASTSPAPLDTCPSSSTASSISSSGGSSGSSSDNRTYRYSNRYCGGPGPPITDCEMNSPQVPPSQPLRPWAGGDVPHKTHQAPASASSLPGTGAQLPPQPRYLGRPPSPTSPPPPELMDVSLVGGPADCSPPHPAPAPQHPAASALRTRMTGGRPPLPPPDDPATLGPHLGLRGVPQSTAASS
CLK2, sequence (O35491 whole entry): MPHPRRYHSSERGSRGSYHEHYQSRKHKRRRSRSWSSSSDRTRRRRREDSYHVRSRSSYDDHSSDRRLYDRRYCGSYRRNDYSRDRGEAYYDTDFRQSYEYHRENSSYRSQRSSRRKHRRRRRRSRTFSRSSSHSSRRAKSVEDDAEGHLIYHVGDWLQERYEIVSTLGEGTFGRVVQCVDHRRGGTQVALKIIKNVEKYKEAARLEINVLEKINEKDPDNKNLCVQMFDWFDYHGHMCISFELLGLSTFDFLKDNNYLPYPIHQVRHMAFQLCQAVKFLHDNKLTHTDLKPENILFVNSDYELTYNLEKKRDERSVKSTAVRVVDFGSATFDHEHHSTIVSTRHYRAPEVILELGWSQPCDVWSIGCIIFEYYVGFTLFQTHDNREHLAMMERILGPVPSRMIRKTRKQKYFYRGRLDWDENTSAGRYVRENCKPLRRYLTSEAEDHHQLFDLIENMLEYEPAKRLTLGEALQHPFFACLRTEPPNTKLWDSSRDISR
T1 sequence (Q00535 whole entry): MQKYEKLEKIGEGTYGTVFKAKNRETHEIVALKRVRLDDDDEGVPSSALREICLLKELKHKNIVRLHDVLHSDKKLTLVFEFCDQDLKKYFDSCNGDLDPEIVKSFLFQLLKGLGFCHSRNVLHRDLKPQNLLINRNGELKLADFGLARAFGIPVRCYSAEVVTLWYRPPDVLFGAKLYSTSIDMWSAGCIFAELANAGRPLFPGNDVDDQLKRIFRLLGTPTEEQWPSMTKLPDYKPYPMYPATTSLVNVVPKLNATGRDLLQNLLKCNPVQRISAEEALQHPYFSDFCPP
T1 sequence (Q15078 99-307 partner limits assumed): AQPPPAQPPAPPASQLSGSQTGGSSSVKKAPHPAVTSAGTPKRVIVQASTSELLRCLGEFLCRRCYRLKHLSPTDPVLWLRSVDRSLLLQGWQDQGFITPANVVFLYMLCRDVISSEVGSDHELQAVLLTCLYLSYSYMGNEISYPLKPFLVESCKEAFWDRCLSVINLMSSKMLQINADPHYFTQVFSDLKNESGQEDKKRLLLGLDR
Experimental for CDK9/cyclin T: (§1) Buffers. Buffer A: 10 mM MgCl2, 1 mM EGTA, 1 mM DTT, 25 mM Tris-HCl pH 7.5, 50 μg heparin/mL. Buffer C: 60 mM β-glycerophosphate, 15 mM p-nitrophenylphosphate, 25 mM MOPS (pH 7.2), 15 mM EGTA, 15 mM MgCl2, 1 mM DTT, 1 mM sodium vanadate, 1 mM phenylphosphate.
(§2) Kinase activities were assayed in buffer A or C at 30°C at a final ATP concentration of 15 μmol/L. Blank values were subtracted and activities were expressed in percent of the maximal activity, i.e. in the absence of inhibitors. Controls were performed with appropriate dilutions of DMSO.
(§3) Their kinase activity was assayed in buffer A, with 1 mg histone H1/mL, in the presence of 15 μmol/L [γ-33P] ATP (3,000 Ci/mmol; 10 mCi/mL) in a final volume of 30 μL. After 30 min incubation at 30°C, the reaction was stopped by harvesting onto P81 phosphocellulose supernatant (Whatman) using a FilterMate harvester (Packard) and washing in 1% phosphoric acid. Scintillation fluid was added and the radioactivity measured in a Packard counter.
(§4) All data points for construction of dose response curves were recorded in triplicate.
Experimental for CLK3: as §1, §2, §3, §4

For the compound `O=C1NCc2ccc3c(-c4ccccc4)c[nH]c3c21` [8a, 3-Phenyl-6,7-dihydropyrrolo[3,4-g]indol-8(1H)-one], the “Residual enzyme activity CK1” value with CK1δ/ε (10 µM concentration, ± SEM) is on record as 91±4%. Also, the IC50 at CK1δ/ε was more than 10 µM; against CDK5/p25 it was more than 10 µM; on DYRK1B, 4.8 µM; on CLK1 it was 0.046 µM; against CLK3, more than 10 µM; at CDK9/cyclin T it was more than 10 µM. In addition, the IC50 against CLK4 was 0.12 µM; on CLK2, 0.21 µM; at CDK2/cyclin A, more than 10 µM; at GSK-3, more than 10 µM; at DYRK1A, more than 10 µM; against CDK1/cyclin B it was more than 10 µM. In addition, the IC50 at DYRK3 is more than 10 µM. Moreover, the remaining activity at 10 µM on CDK5/p25 (10 µM concentration, ± SEM, read-out: Residual enzyme activity CDK5/p25) is 107 ± 20%; on DYRK2 (10 µM concentration, ± SEM, read-out: Residual enzyme activity DYRK 2), 69 ± 15%; on DYRK1B (10 µM concentration, ± SEM, read-out: Residual enzyme activity DYRK 1B) it was 51 ± 9%; at CLK1 (read-out: Residual enzyme activity CLK 1), 8 ± 2%; on CLK3 (read-out: Residual enzyme activity CLK 3), 78 ± 9%; at CDK9/cyclin T (read-out: Residual enzyme activity CDK9/cyclin T), 85 ± 5%. In addition, the remaining activity at 10 µM at CLK4 (read-out: Residual enzyme activity CLK 4) was determined as 2%; at CLK2 (read-out: Residual enzyme activity CLK 2), 14 ± 3%; on CDK2/cyclin A (10 µM concentration, ± SEM, read-out: Residual enzyme activity CDK2/cyclin A), 101 ± 6%; at DYRK1A (10 µM concentration, ± SEM, read-out: Residual enzyme activity DYRK 1A), 61 ± 12%; on DYRK3 (10 µM concentration, ± SEM, read-out: Residual enzyme activity DYRK 3) it was 102 ± 13%. Further, the “Residual enzyme activity GSK3” value in the assay on GSK-3 (10 µM concentration, ± SEM) turned out to be 111±19%. The “Residual enzyme activity CDK1/cyclin B” value with CDK1/cyclin B (10 µM concentration, ± SEM) was found to be 71±21%.
As to `O=C1NCc2ccc3c(-c4ccc(Cl)cc4)c[nH]c3c21` [8d, 3-(4-Chlorophenyl)-6,7-dihydropyrrolo[3,4-g]indol-8(1H)-one], the IC50 on CK1δ/ε was more than 10 µM; at CDK5/p25 it was more than 10 µM; on DYRK2, 9.3 µM; on DYRK1B it was more than 10 µM; against CLK1 it was 0.1 µM; against CLK3, 1.8 µM. In addition, the IC50 on CDK9/cyclin T is more than 10 µM; at CLK4 it was 0.13 µM; against CLK2, 0.17 µM; on CDK2/cyclin A, more than 10 µM; at GSK-3 it was more than 10 µM; at DYRK1A, more than 10 µM. The IC50 at CDK1/cyclin B and on DYRK3 was more than 10 µM each time.
For the compound `O=C1NCc2ccc3c(-c4ccc(Cl)c(Cl)c4)c[nH]c3c21` [8e, 3-(3,4-Dichlorophenyl)-6,7-dihydropyrrolo[3,4-g]indol-8(1H)-one], the IC50 on CK1δ/ε is more than 10 µM; on CDK5/p25, more than 10 µM; at DYRK2 it was more than 10 µM; on DYRK1B, more than 10 µM; on CLK1, 0.11 µM; on CLK3, more than 10 µM. Moreover, the IC50 against CDK9/cyclin T is more than 10 µM; at CLK4 it was 0.13 µM; on CLK2 it was 0.69 µM; on CDK2/cyclin A, more than 10 µM; at GSK-3, more than 10 µM; at DYRK1A it was more than 10 µM. Also, the IC50 at CDK1/cyclin B and on DYRK3 was more than 10 µM each time.
With `O=C1NCc2ccc3c(-c4cccc(O)c4)c[nH]c3c21` [8g, 3-(3-Hydroxyphenyl)-6,7-dihydropyrrolo[3,4-g]indol-8(1H)-one], the IC50 at CK1δ/ε was more than 10 µM; on CDK5/p25, more than 10 µM; at DYRK2 it was 0.59 µM; at DYRK1B, 0.39 µM; against CLK1, 0.044 µM; at CLK3, 1.7 µM. The IC50 against CDK9/cyclin T is 1.1 µM; against CLK4, 0.081 µM; against CLK2, 0.082 µM; at CDK2/cyclin A it was more than 10 µM; at GSK-3, more than 10 µM; at DYRK1A, 0.74 µM. The IC50 against CDK1/cyclin B was more than 10 µM; at DYRK3, 2.2 µM.
For the compound `CC(=O)Oc1cccc(-c2c[nH]c3c4c(ccc23)CNC4=O)c1` [8h, 3-(8-Oxo-1,6,7,8-tetrahydropyrrolo[3,4-g]indol-3-yl)phenyl acetate], the IC50 on CK1δ/ε is more than 10 µM; on CDK5/p25, more than 10 µM; at DYRK2 it was 2.4 µM; at DYRK1B, 1.5 µM; at CLK1 it was 0.17 µM; on CLK3, 3.3 µM. The IC50 against CDK9/cyclin T is more than 10 µM; on CLK4, 0.13 µM; on CLK2 it was 0.32 µM; on CDK2/cyclin A it was more than 10 µM; on GSK-3, more than 10 µM; at DYRK1A, 1.4 µM. Also, the IC50 against CDK1/cyclin B was more than 10 µM; on DYRK3 it was 6.1 µM.
On to `Cc1[nH]c2c3c(ccc2c1-c1ccccc1)CNC3=O` [8k, 2-Methyl-3-phenyl-6,7-dihydropyrrolo[3,4-g]indol-8(1H)-one], for which the IC50 at CK1δ/ε was more than 10 µM; against CDK5/p25, more than 10 µM; against CLK1, 0.093 µM; on CDK9/cyclin T it was more than 10 µM; on CDK2/cyclin A, more than 10 µM; at GSK-3, more than 10 µM. Further, the IC50 on DYRK1A is 1.5 µM; at CDK1/cyclin B, more than 10 µM.
For `CCc1[nH]c2c3c(ccc2c1-c1ccccc1)CNC3=O` [8l, 2-Ethyl-3-phenyl-6,7-dihydropyrrolo[3,4-g]indol-8(1H)-one], the IC50 at CK1δ/ε was 6.1 µM; against CDK5/p25 it was more than 10 µM; against CLK1, 0.12 µM; at CDK9/cyclin T, more than 10 µM; on CDK2/cyclin A, more than 10 µM; on GSK-3 it was more than 10 µM. Moreover, the IC50 on DYRK1A is 0.81 µM; on CDK1/cyclin B, more than 10 µM.
As to `O=C1NCc2c(Br)cc3c(-c4ccccc4)c[nH]c3c21` [12a, 5-Bromo-3-phenyl-6,7-dihydropyrrolo[3,4-g]indol-8(1H)-one], the IC50 was 1.7 µM at CK1δ/ε; 5.3 µM against CDK5/p25; 0.043 µM against CLK1; more than 10 µM against CDK9/cyclin T; more than 10 µM on CDK2/cyclin A; more than 10 µM on GSK-3. Also, the IC50 on DYRK1A came out at 0.2 µM; against CDK1/cyclin B, 2.8 µM.
As for `O=C1NCc2c(Cl)cc3c(-c4ccccc4)c[nH]c3c21` [12c, 5-Chloro-3-phenyl-6,7-dihydropyrrolo[3,4-g]indol-8(1H)-one], the IC50 on CK1δ/ε is more than 10 µM; against CDK5/p25, more than 10 µM; on DYRK2, 2.3 µM; at DYRK1B, 1.8 µM; at CLK1 it was 0.38 µM; against CLK3 it was 2.2 µM. The IC50 is more than 10 µM against CDK9/cyclin T; 0.3 µM against CLK4; 0.033 µM at CLK2; more than 10 µM at CDK2/cyclin A; more than 10 µM on GSK-3; 0.32 µM on DYRK1A. Also, the IC50 at DYRK3 was more than 10 µM.

For the origin of these results see PMC5933782, “Molecular structures of cdc2-like kinases in complex with a new inhibitor chemotype” (PLoS ONE, 2018).
